Experimental data from ChEMBL document CHEMBL6074621, “Recent advances of honokiol:pharmacological activities, manmade derivatives and structure-activity relationship” (Eur J Med Chem, 2024).

Legend:
Homo sapiens = species: Homo sapiens; assay: Inhibition of human pancreatic lipase at 10 uM relative to control
L02 = assay: Antiproliferative activity against human LO2 cells; assay type: functional, cell-based
SMMC-7721 = assay: Antiproliferative activity against human SMMC-7721 cells; assay type: functional, cell-based
HT-29 = assay: Antiproliferative activity against human HT-29 cells assessed as reduction in cell growth after 72 hrs by MTT assay; assay type: functional, cell-based; conditions: HT-29, 72 h
PC-3 = assay: Antiproliferative activity against human PC-3 cells assessed as reduction in cell growth after 72 hrs by MTT assay; assay type: functional, cell-based; conditions: PC-3, 72 h
HCT-116 = assay: Antiproliferative activity against human HCT-116 cells assessed as reduction in cell growth after 72 hrs by MTT assay; assay type: functional, cell-based; conditions: HCT-116, 72 h

## C/C(Cc1ccc(O)c(-c2ccc3oc(C)cc3c2)c1)=N\NC(=O)c1ccc(O)cc1
Homo sapiens
  inhibition: 81%

## C=CCc1cc(CN2CCC(N)CC2)c(O)c(-c2cc(CC=C)c(O)c(CN3CCC(N)CC3)c2)c1
L02
  IC50: 18 µM
SMMC-7721
  IC50: 13.1 µM

## C=CCc1cc(CC=C)c(O)c(-c2cc(CC=C)c(O)c(CC=C)c2)c1
HT-29
  IC50: 11.1 µM
PC-3
  IC50: 19.8 µM
HCT-116
  IC50: 9.8 µM
